{"source": "patent US7154028B2", "about": "“Gibberellin 2-oxidase gene, functions and uses thereof” (National Agriculture and Bio-Oriented Research Organization, priority 2002, dated 2006)", "molecules": {"B1": {"name": "OsGA2ox3 cDNA: full-length rice GA2-oxidase cDNA (SEQ ID NO: 3) fused to the rice actin promoter, introduced into rice (nucleic acid, listed as Oryza sativa)", "DNA": "ATGGTGGTTCTCGCTGGCCCGCCCGCCGTCGATCACATCCCGCTGCTGAGGTCGCCGGACCCCGGCGACGTCTTCTCCGGCGTGCCGGTCGTCGACCTCGGCAGCCCCGGCGCGGCGAGGGCCGTGGTGGACGCCTGCGAGCGGTACGGGTTCTTCAAGGTCGTCAACCACGGCGTGGCCACGGACACGATGGACAAGGCCGAGTCGGAGGCCGTCAGGTTCTTCTCCCAGACGCAGCCCGACAAGGACCGCTCCGGCCCGGCCTACCCGTTCGGGTACGGCAGCAAGCGGATCGGGTTCAATGGCGACATGGGGTGGCTCGAGTACCTCCTCCTCGCCCTCGACGACGCGTCGCTCGCCGACGCCTGCACCGTCCCGTCCTGCGCGGTCTTCCGGGCCGCTCTGAACGAGTACATCTCGGGGGTGCGGAAGGTGGCGGTGCGGGTGATGGAGGCGATGTCGGAGGGGCTGGGCATTGCGCAGGCGGACGCGCTGAGCGCGCTGGTGACGGCGGAAGGGAGCGACCAGGTGTTCCGCGTGAACCACTACCCGCCGTGCCGCGCGCTGCAGGGGCTCGGCTGCAGCGTCACCGGCTTCGGCGAGCACACCGACCCGCAGCTCGTCTCCGTGCTCCGCTCAAACGGCACGTCCGGCCTGCAGATCGCGCTCCGCGACGGCCAGTGGGTGTCCGTGCCCTCCGACCGCGACTCCTTCTTCGTCAACGTCGGCGACTCGTTGCAGGTTCTGACCAATGGGAGGTTCAAGAGCGTGAAGCACAGGGTGGTGGCCAACAGCCTAAAGTCTAGGGTTTCCTTCATCTACTTTGGAGGGCCACCGTTAGCACAGAGGATTGCACCATTGCCACAGCTGCTGGGGGAGGGAGAGCAGAGCCTGTACAAGGAGTTCACATGGGATGAGTACAAGAAGGCTGCCTACAAATCAAGGCTTGGAGACAACAGGCTGGCCCAGTTTGAGAAGAAGTAG", "modifications": "rice actin promoter fused, not cited; CDS (1)..(984)"}}, "key": {"OsGA20ox1": {"test_system": "OsGA20ox1", "test": "RNA gel blot of GA20-oxidase gene transcription in treated rice seedlings", "format": "in vivo, Oryza sativa", "conditions": "wild-type rice seedlings, 10 μM, three days, relative to the effect on OsGA2ox3", "description": "(§1) Seeds of wild-type rice (Oryza sativa L., i.e. Nipponbare) were sterilized in 1% NaClO for one hour, and seeded on agar medium. Seedlings were grown in a growth chamber under continuous light at 30° C. To investigate the influence of GA3 and uniconazole on GA-oxidase expression, wild-type rice seedlings were transferred to a hydroponic culture system containing 10 μM GA3 or 10 μM uniconazole, and allowed to grow for three days. Ten-micrograms of RNAs were prepared from each sample, and gel blot analysis was performed as previously described (Sakamoto, T. et al., Plant Physiol., 125(3): 1508–16, 2001). The influence of uniconazole, a suppressor of GA3 and GA biosyntheses, on the transcriptional level of OsGA2ox2 and OsGA2ox3 (FIG. 6A) was examined. Transcription level of OsGA2ox3 was increased by GA3 treatment, but decreased by uniconazole (FIG. 6A) treatment. […] Transcription of the […] gene was not detected even after GA3 treatment."}, "OsGA2ox3 [1]": {"test_system": "OsGA2ox3", "test": "RNA gel blot of OsGA2ox3 transcription in treated rice seedlings", "format": "in vivo, Oryza sativa", "conditions": "for Transcription level of OsGA2ox3: wild-type rice seedlings, 10 μM, three days, FIG. 6A; for transcription level of the OsGA2ox3 gene: FIG. 6B", "description": "as §1"}, "OsGA2ox3 [2]": {"target": "T1, OsGA2ox3 (Oryza sativa subsp. japonica, UniProt Q8S0S6)", "T1 construct": "general method only; made in house; host or cells: E. coli", "T1 sequence (Q8S0S6 whole entry)": "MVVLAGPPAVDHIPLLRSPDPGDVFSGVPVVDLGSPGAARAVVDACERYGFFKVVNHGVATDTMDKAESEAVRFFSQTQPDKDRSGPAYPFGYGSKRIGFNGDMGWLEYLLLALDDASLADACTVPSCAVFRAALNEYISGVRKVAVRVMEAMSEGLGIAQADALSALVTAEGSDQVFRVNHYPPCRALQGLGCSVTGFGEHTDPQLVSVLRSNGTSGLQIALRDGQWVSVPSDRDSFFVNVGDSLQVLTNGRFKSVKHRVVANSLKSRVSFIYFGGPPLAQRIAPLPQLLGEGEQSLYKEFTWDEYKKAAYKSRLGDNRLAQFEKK", "test": "Enzyme assay with recombinant OsGA2ox3 (E. coli lysate), products identified by GC-MS", "format": "biochemical", "conditions": "labeled substrate incubated with recombinant OsGA2ox3, full scan GC-MS", "from_the_text": "A cell lysate obtained from E. coli heterologously expressing OsGA2ox3 cDNA was used for enzyme assay as previously described (Sakamoto, T. et al., Plant Physiol., 125(3): 1508–16, (2001)). […] However, GA20 was metabolized to a GA29-catabolite. Furthermore, the metabolism of GA29 to a GA29-catabolite was confirmed by metabolism experiments."}, "OsGA2ox1 [3]": {"test_system": "OsGA2ox1", "conditions": "cited from earlier work"}, "AtGA2ox1": {"test_system": "AtGA2ox1", "conditions": "GA-deficient mutants, after treatment with GA3; cited from earlier work"}, "OsGA2ox1 [4]": {"test_system": "OsGA2ox1", "conditions": "GA3-treatment; cited from earlier work"}, "AtGA2ox2": {"test_system": "AtGA2ox2", "conditions": "GA-deficient mutants, after treatment with GA3; cited from earlier work"}, "wild type rice": {"test_system": "wild type rice", "test": "Overexpression of OsGA2ox3 cDNA in transgenic rice", "format": "in vivo, Oryza sativa", "description": "As previously described (Sakamoto, T. et al., Plant Physiol., 125(3): 1508–16, 2001), the full-length OsGA2ox3 cDNA was inserted between the rice actin promoter and the polyadenylation signal of nopaline synthase (NOS) present in a hygromycin resistant binary vector pAct-Hm2. This construct was introduced into Agrobacterium tumefaciens EHA101. Agrobacterium-mediated transformation was conducted as described in the literature (WO 01/06844 A1). Transgenic plants were selected on a medium containing 50 mg/L hygromycin.\nTo test the activity of the OsGA2ox3 gene product in vivo, the full-length OsGA2ox3 cDNA was fused to the rice actin promoter and introduced into wild type rice by Agrobacterium-mediated gene transfer. […] Leaf blades of these plants were dark green, and they were shorter and wider than those of the wild type plants. All of these phenotypes are typical for GA-deficient dwarf rice plants."}}, "data": [{"molecule": "CC(C)(C)C(O)/C(=C\\c1ccc(Cl)cc1)n1cncn1", "note": "(centres unmarked) [uniconazole]", "values": [{"measurement": "transcriptional level of the OsGA20ox1 gene", "setting": "OsGA20ox1", "result": "completely reversed"}, {"measurement": "Transcription level of OsGA2ox3", "setting": "OsGA2ox3 [1]", "result": "decreased"}]}, {"molecule": "C=C1C[C@]23C[C@@]1(O)CC[C@H]2[C@@]12CCC[C@@](C)(C(=O)O1)[C@H]2[C@@H]3C(=O)O", "note": "[GA20, gibberellin A20]", "values": [{"measurement": "Product", "setting": "OsGA2ox3 [2]", "result": "GA29-catabolite"}, {"measurement": "Product", "setting": "OsGA2ox3 [2]; listed as [^2H2]GA20", "result": "[^2H2]GA29-catabolite"}, {"measurement": "product of metabolism by OsGA2ox1 gene product", "setting": "OsGA2ox1 [3]", "result": "GA29"}]}, {"molecule": "C=C1C[C@]23C[C@@]1(O)CC[C@H]2[C@@]12C=C[C@H](O)[C@@](C)(C(=O)O1)[C@H]2[C@@H]3C(=O)O", "note": "[GA3]", "values": [{"measurement": "transcription levels of AtGA2ox1", "setting": "AtGA2ox1", "result": "increased"}, {"measurement": "transcriptional level of the OsGA20ox1 gene", "setting": "OsGA20ox1", "result": "completely reversed"}, {"measurement": "transcription level of OsGA2ox1", "setting": "OsGA2ox1 [4]", "result": "not affected"}, {"measurement": "Transcription of the OsGA2ox3 gene", "setting": "OsGA2ox3 [1]; after GA3 treatment, detection", "result": "not detected"}, {"measurement": "transcription level of the OsGA2ox3 gene", "setting": "OsGA2ox3 [1]; one hour after GA3 treatment", "result": "increased"}, {"measurement": "transcription level of the OsGA2ox3 gene", "setting": "OsGA2ox3 [1]; six hours after GA3 treatment", "result": "decreased to a level that was even lower than the transcription level observed before GA3 treatment"}, {"measurement": "Transcription level of OsGA2ox3", "setting": "OsGA2ox3 [1]", "result": "increased"}, {"measurement": "transcription levels of AtGA2ox2", "setting": "AtGA2ox2", "result": "increased"}]}, {"molecule": "C=C1C[C@]23C[C@@]1(O)CC[C@H]2[C@@]12C[C@H](O)C[C@@](C)(C(=O)O1)[C@H]2[C@@H]3C(=O)O", "note": "[GA29, gibberellin A29]", "values": [{"measurement": "Product", "setting": "OsGA2ox3 [2]", "result": "GA29-catabolite"}, {"measurement": "Product", "setting": "OsGA2ox3 [2]; listed as [^2H2]GA29", "result": "[^2H2]GA29-catabolite"}]}, {"molecule": "C=C1C[C@]23C[C@@]1(O)CC[C@H]2[C@@]12CC[C@H](O)[C@@](C)(C(=O)O1)[C@H]2[C@@H]3C(=O)O", "note": "[GA1]", "values": [{"measurement": "Product", "setting": "OsGA2ox3 [2]", "result": "GA8"}, {"measurement": "Product", "setting": "OsGA2ox3 [2]; listed as [^2H2]GA1", "result": "[^2H2]GA8"}, {"measurement": "product of metabolism by OsGA2ox1 gene product", "setting": "OsGA2ox1 [3]", "result": "GA8"}]}, {"molecule": "B1", "values": [{"measurement": "phenotype of transgenic plants", "setting": "wild type rice; rice actin promoter, 27 independent lines, FIG. 5", "result": "extreme dwarf phenotypes"}, {"measurement": "flowering of transgenic plants", "setting": "wild type rice; wild type flowered about three months after seeding", "result": "did not flower even after four months"}]}]}
